The nature of data set [1]: Cytotoxicity in 293 cells expressing ΔK280 tauRD-DsRed fusion protein. It is filed as cell-based. The note with it: human, ΔK280 tauRD-DsRed 293 cells.
Data set [2] in a line: MTT cytotoxicity in SH-SY5Y cells. It is filed as cell-based. As to conditions: human, 24 h treatment, read-out: half maximal inhibitory concentration (IC50), cytotoxicity. Here is the method: (§1) The HEK-293 cells and SH-SY5Y cells were seeded into a 48-well plate (5×10^4), grown for 24 h, and treated with 0.1 μM, 1 μM, 10 μM, 100 μM of compound (A), compound (B), or compound (C) individually for 24 h. Then 20 μL of MTT (5 mg/mL dissolved in PBS) was added for 2 h and the full wavelength microplate spectrophotometer was used for detecting the absorbance of the purple formazan at 570 nm.
(§2) As a result, the cytotoxicities of compound (A), compound (B), and compound (C) are low and not harmful to the cells.

The target in data set [3] is T1, ΔK280 tauRD-DsRed (Homo sapiens, UniProt P10636, DEL597-597).
T1 construct: tauRD: Gln^244-Glu^372 of the longest tau^441 isoform; expressed in transfected cells; host or cells: HEK-293 (Tet-On, doxycycline-induced)
T1 sequence (P10636 with tags, fused parts or gaps isoform P10636-8 DEL280-280): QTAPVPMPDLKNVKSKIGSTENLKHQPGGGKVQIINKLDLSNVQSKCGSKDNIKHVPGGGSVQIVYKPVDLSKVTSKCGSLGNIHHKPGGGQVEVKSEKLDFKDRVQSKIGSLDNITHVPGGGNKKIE
Put plainly: Inhibition of ΔK280 tauRD-DsRed aggregation (DsRed fluorescence, high content analysis). It is filed as cell-based. As to conditions: 8 h pretreatment, Dox 3 days, ΔK280 tauRD-DsRed 293 cells. The source says: We used human embryonic kidney HEK-293 (cultured with DMEM supplemented with 10% FBS) and neuroblastoma SH-SY5Y (cultured with DMEM F12 supplemented with 10% FBS) cells expressing a DsRed-tagged pro-aggregation mutant (ΔK280) of the C-terminal repeat domain of tau (tauRD: Gln^244-Glu^372 of the longest tau^441 isoform). The recombinant tauRD-DsRed construct was under the control of a hybrid human cytomegalovirus (CMV)/TetO2 promoter that can be induced by adding doxycycline. The Tet-On ΔK280 tauRD-DsRed 293 and SH-SY5Y cells were grown in medium containing blasticidin (5 μg/mL) and hygromycin (100 μg/mL) and were used for the following evaluation.
ΔK280 tauRD-DsRed 293 cells were seeded into 96-well plates, grown for 24 h, and pretreated with 0.1, 1, 10 μM of congo red (a known tau aggregation inhibitor), compound (A), compound (B), and compound (C) for 8 h. Then doxycycline (Dox; 1 μg/mL) was added for 3 days to induce ΔK280 tauRD-DsRed expression and DsRed fluorescence was assessed using a high content analysis (HCA) system.
The DsRed fluorescence of ΔK280 tauRD-DsRed fusion protein was used to reflect the aggregation condition of ΔK280 tauRD. Misfolding of fused DsRed occurred when ΔK280 tauRD aggregated, and thus decreasing the DsRed fluorescence. Accordingly, inhibition of ΔK280 tauRD aggregation may improve the DsRed misfolding and increase DsRed fluorescence.

Data set [4] in a line: MTT cytotoxicity in HEK-293 cells. It is filed as cell-based. As to conditions: human, 24 h treatment, read-out: half maximal inhibitory concentration (IC50), cytotoxicity. The protocol: as §1, §2
The test system of data set [5] is ΔK280 tauRD-DsRed 293 cells. Put plainly: ROS level (DCFH-DA, flow cytometry) in induced ΔK280 tauRD-DsRed 293 cells. It is filed as cell-based, human. The note with it: 10 μM, 8 h pretreatment, Dox 3 days. The protocol: (§3) ΔK280 tauRD-DsRed 293 cells were seeded into 12-well plates, grown for 24 h, and pretreated with 10 μM of congo red, compound (A), compound (B), and compound (C) respectively for 8 h. Then, doxycycline (1 μg/mL) was added for 3 days to induce ΔK280 tauRD-DsRed expression.
Next, uninduced cells, doxycycline-induced but compound-untreated cells, and doxycycline-induced and compound-treated cells were incubated with 2′,7′-dichlorodihydrofluorecein diacetate (DCFH-DA) in 37° C. for 30 minutes, and then washed with PBS. The excited green fluorescence intensity under 492-495/517-527 nm of excitation/emission wavelength was measured using flow cytometry (BD) to evaluate the ROS level.

For data set [6], the system named is ΔK280 tauRD-DsRed SH-SY5Y cells. Put plainly: Neurite growth in induced ΔK280 tauRD-DsRed SH-SY5Y cells. It is filed as cell-based, human. As to conditions: 10 μM, 8 h pretreatment, Dox 7 days, retinoic acid-differentiated. The protocol:
ΔK280 tauRD-DsRed SH-SY5Y tauRD-DsRed cells were seeded in 6-well plate (1×10^5/well) in a medium containing all-trans retinoic acid (10 μM), grown for 24 h, and pretreated with 10 μM of congo red, compound (A), compound (B), and compound (C) for 8 h; after which, ΔK280 tauRD-DsRed expression was induced with 1 μg/mL doxycycline for 7 days. The cells were then fixed in 4% paraformaldehyde, permeabilized with 0.1% Triton X-100, blocked in 3% BSA, stained with the primary antibody anti-TUBB3 (against neuronal Class III β-tubulin) (1:1000; Convance) and with a secondary anti-rabbit Alexa Fluor® 555 antibody (1:500; Molecular Probes), and then incubated at room temperature for 3 h. Nuclei were counterstained with 4′,6-diamidino-2-phenylindole (DAPI). The total outgrowth in the untreated cells, cells treated with congo red, compound (A), compound (B), and compound (C) were assessed using MetaMorph image acquisition and analysis software.

Data set [7] has as its system caspase 3. Put plainly: Caspase 3 activity (Ac-DEVD-AMC) in induced ΔK280 tauRD-DsRed 293 cells. As to conditions: 10 μM, 8 h pretreatment, Dox 3 days. It is filed as cell-based, human. Here is the method:
as §3
In addition, the caspase 3 activity of uninduced cells, doxycycline-induced but compound-untreated cells, and doxycycline-induced and compound-treated cells were measured using Caspase 3 Assay Kit (Sigma). 10^6 cells in each group were harvested and 100 μL of lysis buffer was added, incubated on the ice for 20 minutes, and then, Ac-DEVD-AMC substrate was added into each group. The release of the fluorescent AMC was recorded under 360/460 nm of excitation/emission wavelength using an FLx800 microplate fluorescence reader (Bio-Tek). The caspase 3 activity was calculated using an AMC standard curve.

`CCOC(=O)[C@@H]1OC(O)[C@H](C)[C@@H](c2ccc(OC)cc2)[C@@H]1[N+](=O)[O-]` (some centres unmarked) [compound (A)]: in data set [1], the IC50 at 80 h was 32 µM. For the same compound, the IC50 at 24 h came to 267 µM in data set [2] and 128 µM in data set [4]. The “DsRed fluorescence intensity relative to untreated cells (100%)” value in data set [3] (1-10 μM) was 105-110%.
In data set [1], `CCOC(=O)[C@@H]1OC(O)[C@H](C)[C@@H](c2cccs2)[C@@H]1[N+](=O)[O-]` (some centres unmarked) [compound (B)] registered an IC50 at 80 h of 42 µM. In addition, the IC50 at 24 h in data set [2] came to 273 µM; in data set [4], 135 µM. For the same compound, the “DsRed fluorescence intensity relative to untreated cells (100%)” value in data set [3] (10 μM) was 111%.
On to `CCOC(=O)[C@@H]1OC(O)[C@H](C)[C@@H](c2ccccc2)[C@@H]1[N+](=O)[O-]` (some centres unmarked) [compound (C)], for which, in data set [1], the IC50 at 80 h was found to be 42 µM. For the same compound, the IC50 at 24 h in data set [2] is 275 µM; in data set [4], 135 µM. Further, the “DsRed fluorescence intensity relative to untreated cells (100%)” value in data set [3] (1-10 μM) was 106-113%.
Take `Nc1c(/N=N/c2ccc(-c3ccc(/N=N/c4cc(S(=O)(=O)O)c5ccccc5c4N)cc3)cc2)cc(S(=O)(=O)O)c2ccccc12` [congo red]: the IC50 at 80 h in data set [1] stood at 60 µM. For the same compound, in data set [5], the “ROS level (uninduced cells 100%; induced untreated 110%)” value was determined as 93%. Further, the “neurite growth (uninduced cells 100%; induced untreated 89%)” value in data set [6] was 99%. Besides, the “caspase 3 activity (uninduced cells 100%; induced untreated 129%)” value in data set [7] was 63%. In addition, in data set [3] (10 μM), the “DsRed fluorescence intensity relative to untreated cells (100%)” value is reported as 108%.

(Values after US10064838B2, “Method for treating tau-associated diseases using tetrahydropyranol derivatives” (NATIONAL TAIWAN NORMAL UNIVERSITY, priority 2016, dated 2018).)
